Assay results published in patent US9926304B2, “1-(arylmethyl)quinazoline-2,4(1H,3H)-diones as PARP inhibitors and the use thereof” (Impact Therapeutics, Inc., priority 2011, dated 2018).
Structures can show the parent of a compound that is named as a salt. Where two headings read alike, the source gives them in different places.

Tests used:
[1] = test system: Human breast cancer cell line T47D; assay: Cell based caspase-3 activity assay: potentiation of MMS induced apoptosis; details: T47D cells, 11.1 μg/ml MMS, 24 hours, intracellular caspase-3 activity, read-out: EC50 (nM), potentiation of the apoptosis inducing activity of MMS
Text: Determination of the synergistic potentiation effect of 1-(3-(4-(pyrimidin-2-yl)piperazine-1-carbonyl)benzyl)quinazoline-2,4(1H,3H)-dione and analogs on MMS induced apoptosis using a cell based caspase-3 activity assay
Human breast cancer cell line T47D was used to determine the potentiation effect of PARP inhibitors on the apoptosis inducing activity of DNA damaging anticancer drugs such as MMS. Intracellular caspase-3 activity was used to measure cell apoptosis. The dose response effect of MMS to induce intracellular caspase activity was carefully titrated and the concentration that only induces a minimal level of caspase activity was used to test the potentiation effect of PARP inhibitors. Briefly, T47D cells were grown in DMEM/F12 cell culture medium (Hyclone) supplemented with 0.2 U/ml insulin (Genview) and 10% FBS (Hyclone). A day before experiment, 20000 of T47D cells were seeded to each well of a 96-well cell culture plate and maintained at 37° C. and 5% CO2 in a cell culture incubator overnight. On the day of experiment, cell culture medium was removed. One hundred and eighty μl of fresh medium containing 11.1 μg/ml MMS was added to each well and followed by 20 μl medium containing 10 folds of the concentrations of experimental drugs or reference compounds (ADZ2281 and ABT-888). The serial dilutions of the compounds to be tested and the reference compounds were made in a 1:3 and 1:10 fashion in DMSO. The 10-fold compound solutions were made by mixing 10 μl DMSO serial dilution solutions with 90 μl fresh growth medium. Twenty four hours later, the cells in the 96-well plates were centrifuged at 1000 g for 5 min and the supernatants were removed. Fifty μl lysis buffer (10 mM Tris, pH7.5, 0.1M NaCl, 1 mM EDTA, 0.01% Triton X-100) was added to each well and the plates were shaked horizontally for 30 min at 4° C. After centrifugation at 1000 g at 4° C. for 10 min, 20 μl of supernatant was transferred from each well to a corresponding well in a 384-well black plate. Twenty μl of buffer (20 mM PIPES, pH7.4, 4 mM EDTA and 0.2% CHAPS) containing 20 μM fluorescent caspase-3 substrate ((Ac-DEVD)2-R110, AnaSpec Cat #60304-5) was added to each well afterwards. The plates were shaked to uniformly mix the wells and incubated at 37° C. for 3 h. The fluorescence intensity was measured using the following wavelength: ex: 496 nm, em: 520 nm using a fluorescence plate reader (Varioskan Flash, Thermo Fisher Scientific). The caspase-3 activity induced by the compounds was expressed as a relative fluorescence unit (RFU). The obtained fluorescence readings were analyzed using a commercial graphic software (GraphPad Prism 5) and plotted against the Log value of the compound concentrations. The EC50 values were obtained by fitting the data points with the equation of Y (fluorescence reading)=minimal fluorescence reading+(maximal fluorescence reading−minimal fluorescence reading)/(1+10^(Log EC50−Log C)), where C is the concentration of the testing compound.
The synergistic potentiation effect of compounds on MMS induced apoptosis in T47D cells is expressed as EC50 values and listed in Table 2.

[2] = test system: SW620 human colorectal cancer cells; assay: MTT based cell viability assay: potentiation of the growth inhibiting activity of MMS
[3] = Homo sapiens, SW-620, 120 h, read-out: IC50 (nM), potentiation of the growth inhibiting activity of MMS, SW620 cells, 1.7 μg/ml MMS, 5 days (120 hours), MTT
[4] = read-out: IC50 (nM), potentiation of the growth inhibiting activity of MMS, SW620 cells, 1.7 μg/ml MMS, 5 days (120 hours), MTT

In the case of `O=C(c1cccc(Cn2c(=O)[nH]c(=O)c3ccccc32)c1)c1ccc2nncn2c1` [Example 198, 1-(3-([1,2,4]Triazolo[4,3-a]pyridine-6-carbonyl)benzyl)quinazoline-2,4(1H,3H)-dione], the EC50 ([1]; Homo sapiens, T47D, 24 h) is reported as over 10000 nM and the IC50 [2, 3] is reported as over 10000 nM.

`O=C(c1cc(F)cc(Cn2c(=O)[nH]c(=O)c3ccccc32)c1)N1CCN(C(=O)C2CCCC2)CC1` [Example 64, 1-(3-(4-(Cyclopentylcarbonyl)piperazine-1-carbonyl)-5-fluorobenzyl)quinazoline-2,4(1H,3H)-dione] showed an EC50 ([1]; Homo sapiens, T47D, 24 h) of 51 nM and an IC50 [2, 3] of 177 nM.

In the case of `O=C(O)c1cccc(Cn2c(=O)[nH]c(=O)c3ccccc32)c1` [Example 2, 1-(3-Carboxybenzyl)quinazoline-2,4(1H,3H)-dione], the EC50 ([1]; Homo sapiens, T47D, 24 h) is reported as over 10000 nM and the IC50 [2, 3] is reported as over 10000 nM.

`O=C(c1cccc(Cn2c(=O)[nH]c(=O)c3cc(Cl)ccc32)c1)N1CCN(C(=O)C2CCC2)CC1` [Example 116, 6-Chloro-1-(3-(4-(cyclobutylcarbonyl)piperazine-1-carbonyl)benzyl)quinazoline-2,4(1H,3H)-dione] was tested, and the EC50 ([1]; Homo sapiens, T47D, 24 h) was 13 nM and the IC50 [2, 3] was 48 nM.

In the case of `O=C(c1cc(Cn2c(=O)[nH]c(=O)c3cc(Cl)ccc32)ccc1F)N1CCN(c2ccccn2)CC1` [Example 120, 6-Chloro-1-(4-fluoro-3-(4-(pyridin-2-yl)piperazine-1-carbonyl)benzyl)quinazoline-2,4(1H,3H)-dione], the EC50 ([1]; Homo sapiens, T47D, 24 h) is reported as 8.8 nM and the IC50 [2, 3] is reported as 42 nM.

`O=C(NCc1cccc(Cl)c1)c1cc(Cn2c(=O)[nH]c(=O)c3c(F)cccc32)ccc1F` [Example 201, 1-(3-(3-Chlorobenzylcarbamoyl)-4-fluorobenzyl)-5-fluoroquinazoline-2,4(1H,3H)-dione] gave an EC50 ([1]; Homo sapiens, T47D, 24 h) of over 10000 nM and an IC50 [2, 3] of over 10000 nM.

Compound `O=C(c1cccc(Cn2c(=O)[nH]c(=O)c3ccccc32)c1)N1CCN(c2ncccn2)CC1` [Example 194, 1-(3-(4-(Pyrimidin-2-yl)piperazine-1-carbonyl)benzyl)quinazoline-2,4(1H,3H)-dione hydrochloride] has an EC50 ([1]; Homo sapiens, T47D, 24 h) of 11 nM and an IC50 [2, 3] of 18 nM.

For `COc1ccc(C(=O)N2CCN(C(=O)c3ccc(Cn4c(=O)[nH]c(=O)c5ccccc54)cc3)CC2)cc1` [Example 95, 1-(4-(4-(4-Methoxybenzoyl)piperazine-1-carbonyl)benzyl)quinazoline-2,4(1H,3H)-dione], the EC50 ([1]; Homo sapiens, T47D, 24 h) was over 10000 nM and the IC50 [2, 3] was over 10000 nM.

`O=C(c1cccc(Cn2c(=O)[nH]c(=O)c3ccccc32)c1)N1CCC(N2CCCCC2)CC1` [Example 28, 1-(3-(4-(Piperidin-1-yl)piperidine-1-carbonyl)benzyl)quinazoline-2,4(1H,3H)-dione] gave an EC50 ([1]; Homo sapiens, T47D, 24 h) of 5890 nM and an IC50 [2, 3] of over 10000 nM.

Work on `O=C(c1cccc(Cn2c(=O)[nH]c(=O)c3c(F)cccc32)c1)N1CCN(C(=O)c2cccs2)CC1` [Example 131, 5-Fluoro-1-(3-(4-(thiophene-2-carbonyl)piperazine-1-carbonyl)benzyl)quinazoline-2,4(1H,3H)-dione] yielded an EC50 ([1]; Homo sapiens, T47D, 24 h) of 20 nM and an IC50 [2, 3] of 17 nM.

Work on `O=C(c1ccc(F)c(Cn2c(=O)[nH]c(=O)c3c(Cl)cccc32)c1)N1CCN(c2ccccn2)CC1` [Example 173, 5-Chloro-1-(6-fluoro-3-(4-(pyridin-2-yl)piperazine-1-carbonyl)benzyl)quinazoline-2,4(1H,3H)-dione] yielded an EC50 ([1]; Homo sapiens, T47D, 24 h) of 122 nM and an IC50 [2, 3] of 228 nM.

“1-(3-(4-(Cyclopentylcarbonyl)piperazine-1-carbonyl)-6-fluorobenzyl)-6-fluoroquinazoline-2,4(1H,3H)-dione [Example 153]” showed an EC50 [1] of 2 nM and an IC50 [2, 4] of 9.2 nM.

Work on `O=C(c1cccc(Cn2c(=O)[nH]c(=O)c3ccc(C(F)(F)F)cc32)c1)N1CCN(c2ncccn2)CC1` [Example 206, 1-(3-(4-(Pyrimidin-2-yl)piperazine-1-carbonyl)benzyl)-7-(trifluoromethyl)quinazoline-2,4(1H,3H)-dione] yielded an EC50 ([1]; Homo sapiens, T47D, 24 h) of over 10000 nM and an IC50 [2, 3] of over 10000 nM.

`O=C(c1ccc(F)c(Cn2c(=O)[nH]c(=O)c3ccccc32)c1)N1CCN(C(=O)c2cccs2)CC1` [Example 52, 1-(6-Fluoro-3-(4-(thiophene-2-carbonyl)piperazine-1-carbonyl)benzyl)quinazoline-2,4(1H,3H)-dione] was tested, and the EC50 ([1]; Homo sapiens, T47D, 24 h) was 22 nM and the IC50 [2, 3] was 55 nM.

`O=C(c1ccccc1)N1CCN(C(=O)c2cc(Cn3c(=O)[nH]c(=O)c4c(F)cccc43)ccc2F)CC1` [Example 137, 1-(3-(4-Benzoylpiperazine-1-carbonyl)-4-fluorobenzyl)-5-fluoroquinazoline-2,4(1H,3H)-dione] gave an EC50 ([1]; Homo sapiens, T47D, 24 h) of 2.1 nM and an IC50 [2, 3] of 7 nM.

With `COc1ccc2c(c1)c(=O)[nH]c(=O)n2Cc1cccc(C(=O)N2CCN(c3ncccn3)CC2)c1` [Example 204, 6-Methoxy-1-(3-(4-(pyrimidin-2-yl)piperazine-1-carbonyl)benzyl)quinazoline-2,4(1H,3H)-dione] the EC50 ([1]; Homo sapiens, T47D, 24 h) was over 10000 nM and the IC50 [2, 3] was over 10000 nM.

In the case of `Nc1ccc2c(c1)c(=O)[nH]c(=O)n2Cc1cccc(C(=O)N2CCN(c3ncccn3)CC2)c1` [Example 219, 6-Amino-1-(3-(4-(pyrimidin-2-yl)piperazine-1-carbonyl)benzyl)quinazoline-2,4(1H,3H)-dione], the EC50 ([1]; Homo sapiens, T47D, 24 h) is reported as 445 nM and the IC50 [2, 3] is reported as 481 nM.

Work on `O=C(c1ccc(F)c(Cn2c(=O)[nH]c(=O)c3cc(Cl)ccc32)c1)N1CCN(C(=O)C2CCCCC2)CC1` [Example 125, 6-Chloro-1-(3-(4-(cyclohexylcarbonyl)piperazine-1-carbonyl)-6-fluorobenzyl)quinazoline-2,4(1H,3H)-dione] yielded an EC50 ([1]; Homo sapiens, T47D, 24 h) of 22 nM and an IC50 [2, 3] of 6.7 nM.

`O=C(c1cccc(Cn2c(=O)[nH]c(=O)c3ccccc32)c1)N1CCN(S(=O)(=O)C2CCCCC2)CC1` [Example 75, 1-(3-(4-(Cyclohexylsulfonyl)piperazine-1-carbonyl)benzyl)quinazoline-2,4(1H,3H)-dione] was tested, and the EC50 ([1]; Homo sapiens, T47D, 24 h) was 2870 nM and the IC50 [2, 3] was 2660 nM.

For `COC(=O)c1cccc(Cn2c(=O)[nH]c(=O)c3ccccc32)c1` [Example 1, 1-(3-Methoxycarbonylbenzyl)quinazoline-2,4(1H,3H)-dione], the EC50 ([1]; Homo sapiens, T47D, 24 h) was over 10000 nM and the IC50 [2, 3] was over 10000 nM.

Work on “1-(3-(4-(Cyclopentylcarbonyl)piperazine-1-carbonyl)-4-fluorobenzyl)-6-fluoroquinazoline-2,4(1H,3H)-dione [Example 148]” yielded an EC50 [1] of 2.3 nM and an IC50 [2, 4] of 2.1 nM.

`O=C(c1cc(Cn2c(=O)[nH]c(=O)c3cc(F)ccc32)ccc1F)N1CCN(C(=O)C2CCC2)CC1` [Example 180, 1-(3-(4-(Cyclobutylcarbonyl)piperazine-1-carbonyl)-4-fluorobenzyl)-6-fluoroquinazoline-2,4(1H,3H)-dione] was tested, and the EC50 ([1]; Homo sapiens, T47D, 24 h) was 1.4 nM and the IC50 [2, 3] was 3.1 nM.

In the case of `O=C(c1cccc(Cn2c(=O)[nH]c(=O)c3cc([N+](=O)[O-])ccc32)c1)N1CCN(C(=O)C2CCCCC2)CC1` [Example 92, 1-(3-(4-(Cyclohexylcarbonyl)piperazine-1-carbonyl)benzyl)-6-nitroquinazoline-2,4(1H,3H)-dione], the EC50 ([1]; Homo sapiens, T47D, 24 h) is reported as 2930 nM and the IC50 [2, 3] is reported as over 10000 nM.

Compound `O=C(c1ccc(Cl)cc1)N1CCN(C(=O)c2cccc(Cn3c(=O)[nH]c(=O)c4ccccc43)c2)CC1` [Example 10, 1-(3-(4-(4-Chlorobenzoyl)piperazine-1-carbonyl)benzyl)quinazoline-2,4(1H,3H)-dione] has an EC50 ([1]; Homo sapiens, T47D, 24 h) of 400 nM and an IC50 [2, 3] of 439 nM.

`COC(=O)c1cc(Cn2c(=O)[nH]c(=O)c3ccccc32)ccc1F` [Example 21, 1-(4-Fluoro-3-methoxycarbonylbenzyl)quinazoline-2,4(1H,3H)-dione] showed an EC50 ([1]; Homo sapiens, T47D, 24 h) of 5800 nM and an IC50 [2, 3] of over 10000 nM.

Compound `O=C(c1cc(Cn2c(=O)[nH]c(=O)c3ccccc32)ccc1Cl)N1CCN(C(=O)C2CCCCC2)CC1` [Example 66, 1-(4-Chloro-3-(4-(cyclohexylcarbonyl)piperazine-1-carbonyl)benzyl)quinazoline-2,4(1H,3H)-dione] has an EC50 ([1]; Homo sapiens, T47D, 24 h) of 604 nM and an IC50 [2, 3] of 991 nM.
